Test results reported in PubChem BioAssay (NCI).
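Values below derive from 48-hour exposures of cells grown in 96-well plates, with endpoints linearly interpolated between the two concentrations bracketing the appropriate inhibition level. GI50: concentration for 50% inhibition of growth. The concentration for full growth arrest is given as TGI.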

Columns and labels:
Assay in all cases: DTP human tumour cell line panel, 48 h
UACC-62 melanoma = test system: UACC-62 melanoma
EKVX NSCLC = test system: EKVX NSCLC
KM12 colon = test system: KM12 colon
OVCAR-3 ovarian = test system: OVCAR-3 ovarian
CCRF-CEM leukemia = test system: CCRF-CEM leukemia
HT29 colon = test system: HT29 colon
UO-31 renal = test system: UO-31 renal
OVCAR-8 ovarian = test system: OVCAR-8 ovarian
SF-539 CNS = test system: SF-539 CNS
HS 578T breast = test system: HS 578T breast
RPMI-8226 leukemia = test system: RPMI-8226 leukemia
MALME-3M melanoma = test system: MALME-3M melanoma
SR leukemia = test system: SR leukemia
HCT-116 colon = test system: HCT-116 colon
HL-60(TB) leukemia = test system: HL-60(TB) leukemia
CAKI-1 renal = test system: CAKI-1 renal
SN12C renal = test system: SN12C renal
M14 melanoma = test system: M14 melanoma
A549 NSCLC = test system: A549 NSCLC
SK-MEL-28 melanoma = test system: SK-MEL-28 melanoma
COLO 205 colon = test system: COLO 205 colon
SK-MEL-5 melanoma = test system: SK-MEL-5 melanoma
MCF7 breast = test system: MCF7 breast
BT-549 breast = test system: BT-549 breast
A498 renal = test system: A498 renal
HOP-92 NSCLC = test system: HOP-92 NSCLC
786-0 renal = test system: 786-0 renal
K-562 leukemia = test system: K-562 leukemia
ACHN renal = test system: ACHN renal
OVCAR-4 ovarian = test system: OVCAR-4 ovarian
SF-268 CNS = test system: SF-268 CNS
NCI-H522 lung = test system: NCI-H522 lung
LOX IMVI melanoma = test system: LOX IMVI melanoma
MDA-MB-435 = test system: MDA-MB-435
SK-MEL-2 melanoma = test system: SK-MEL-2 melanoma
IGROV1 ovarian = test system: IGROV1 ovarian
SF-295 CNS = test system: SF-295 CNS
SNB-19 CNS = test system: SNB-19 CNS
SW-620 colon = test system: SW-620 colon
U251 CNS = test system: U251 CNS
HOP-62 NSCLC = test system: HOP-62 NSCLC
HCT-15 colon = test system: HCT-15 colon
DU-145 prostate = test system: DU-145 prostate
MOLT-4 leukemia = test system: MOLT-4 leukemia
UACC-257 melanoma = test system: UACC-257 melanoma
NCI-H23 lung = test system: NCI-H23 lung
OVCAR-5 ovarian = test system: OVCAR-5 ovarian
RXF 393 renal = test system: RXF 393 renal
SK-OV-3 ovarian = test system: SK-OV-3 ovarian
NCI/ADR-RES ovarian = test system: NCI/ADR-RES ovarian
MDA-MB-231 breast = test system: MDA-MB-231 breast
MDA-MB-468 breast = test system: MDA-MB-468 breast
TK-10 renal = test system: TK-10 renal
HCC-2998 colon = test system: HCC-2998 colon
PC-3 prostate = test system: PC-3 prostate
NCI-H226 lung = test system: NCI-H226 lung
SNB-75 CNS = test system: SNB-75 CNS
NCI-H460 lung = test system: NCI-H460 lung
T-47D breast = test system: T-47D breast

## Clc1ccc(CNc2nc(SCCN3CCOCC3)nc3c2cnn3CC(Cl)c2ccc(Br)cc2)cc1 (stereo unspecified)
UACC-62 melanoma
  GI50: 11.7 µM
  TGI: > 100 µM
EKVX NSCLC
  GI50: 4.55 µM
  TGI: > 100 µM
KM12 colon
  GI50: 5.39 µM
  TGI: > 100 µM
OVCAR-3 ovarian
  GI50: 9.59 µM
  TGI: > 100 µM
CCRF-CEM leukemia
  GI50: 3.85 µM
  TGI: > 100 µM
HT29 colon
  GI50: 1.91 µM
  TGI: 4.04 µM
UO-31 renal
  GI50: 3.65 µM
  TGI: > 100 µM
OVCAR-8 ovarian
  GI50: 17.9 µM
  TGI: > 100 µM
SF-539 CNS
  GI50: 4.37 µM
  TGI: > 100 µM
HS 578T breast
  GI50: 9.59 µM
  TGI: > 100 µM
RPMI-8226 leukemia
  GI50: 3.52 µM
  TGI: > 100 µM
MALME-3M melanoma
  GI50: 3.94 µM
  TGI: 28.9 µM
SR leukemia
  GI50: 1.68 µM
  TGI: 5.63 µM
HCT-116 colon
  GI50: 3.81 µM
  TGI: > 100 µM
HL-60(TB) leukemia
  GI50: 2.81 µM
  TGI: 26.8 µM
CAKI-1 renal
  GI50: 5.45 µM
  TGI: > 100 µM
SN12C renal
  GI50: 6.14 µM
  TGI: > 100 µM
M14 melanoma
  GI50: 6.01 µM
  TGI: > 100 µM
A549 NSCLC
  GI50: 4.18 µM
  TGI: > 100 µM
SK-MEL-28 melanoma
  GI50: 14 µM
  TGI: > 100 µM
COLO 205 colon
  GI50: 5.71 µM
  TGI: 32 µM
SK-MEL-5 melanoma
  GI50: 7.66 µM
  TGI: 21 µM
MCF7 breast
  GI50: 3.45 µM
  TGI: > 100 µM
BT-549 breast
  GI50: 18.4 µM
  TGI: 94.6 µM
A498 renal
  GI50: 54.1 µM
  TGI: > 100 µM
HOP-92 NSCLC
  GI50: 8.71 µM
  TGI: > 100 µM
786-0 renal
  GI50: 5.62 µM
  TGI: > 100 µM
K-562 leukemia
  GI50: 2.85 µM
  TGI: > 100 µM
ACHN renal
  GI50: 4.19 µM
  TGI: > 100 µM
OVCAR-4 ovarian
  GI50: 5.3 µM
  TGI: > 100 µM
SF-268 CNS
  GI50: 7.43 µM
  TGI: > 100 µM
NCI-H522 lung
  GI50: 6.17 µM
  TGI: > 100 µM
LOX IMVI melanoma
  GI50: 4.49 µM
  TGI: > 100 µM
MDA-MB-435
  GI50: 6.65 µM
  TGI: > 100 µM
SK-MEL-2 melanoma
  GI50: 13 µM
  TGI: 63.1 µM
IGROV1 ovarian
  GI50: 65.4 µM
  TGI: > 100 µM
SF-295 CNS
  GI50: 3.91 µM
  TGI: > 100 µM
SNB-19 CNS
  GI50: 8.34 µM
  TGI: > 100 µM
SW-620 colon
  GI50: 6.11 µM
  TGI: 91.7 µM
U251 CNS
  GI50: 5.35 µM
  TGI: > 100 µM
HOP-62 NSCLC
  GI50: 63 µM
  TGI: > 100 µM
HCT-15 colon
  GI50: 3.03 µM
  TGI: 11 µM
DU-145 prostate
  GI50: 46.4 µM
  TGI: > 100 µM
MOLT-4 leukemia
  GI50: 2.62 µM
  TGI: 8.27 µM
UACC-257 melanoma
  GI50: 29.9 µM
  TGI: > 100 µM
NCI-H23 lung
  GI50: 7.84 µM
  TGI: > 100 µM
OVCAR-5 ovarian
  GI50: > 100 µM
  TGI: > 100 µM
RXF 393 renal
  GI50: 1.72 µM
  TGI: 8.87 µM
SK-OV-3 ovarian
  GI50: > 100 µM
  TGI: > 100 µM
NCI/ADR-RES ovarian
  GI50: 4.14 µM
  TGI: > 100 µM
MDA-MB-231 breast
  GI50: 9.03 µM
  TGI: > 100 µM
MDA-MB-468 breast
  GI50: 3.3 µM
  TGI: 18.9 µM
TK-10 renal
  GI50: 31.9 µM
  TGI: > 100 µM
HCC-2998 colon
  GI50: 4.4 µM
  TGI: > 100 µM
PC-3 prostate
  GI50: 4.3 µM
  TGI: > 100 µM
NCI-H226 lung
  GI50: 5.68 µM
  TGI: > 100 µM
SNB-75 CNS
  GI50: 4.65 µM
  TGI: > 100 µM
NCI-H460 lung
  GI50: 4.57 µM
  TGI: > 100 µM
T-47D breast
  GI50: 3.05 µM
  TGI: > 100 µM

## NC(=Nc1ccc(OCCCCCCCCn2ccnn2)cc1)c1ccccc1
UACC-62 melanoma
  GI50: 0.215 µM
  TGI: 13.1 µM
EKVX NSCLC
  GI50: 0.286 µM
  TGI: > 40.9 µM
KM12 colon
  GI50: 0.269 µM
  TGI: 19 µM
OVCAR-3 ovarian
  GI50: 0.126 µM
  TGI: 5 µM
CCRF-CEM leukemia
  GI50: 0.271 µM
  TGI: 19.4 µM
HT29 colon
  GI50: 0.293 µM
  TGI: 0.884 µM
UO-31 renal
  GI50: 0.565 µM
  TGI: 19.9 µM
OVCAR-8 ovarian
  GI50: 0.462 µM
  TGI: 3.97 µM
SF-539 CNS
  GI50: 0.239 µM
  TGI: 0.87 µM
HS 578T breast
  GI50: 0.271 µM
  TGI: 7.44 µM
RPMI-8226 leukemia
  GI50: 0.404 µM
  TGI: 17.8 µM
MALME-3M melanoma
  GI50: 0.3 µM
  TGI: 15.9 µM
SR leukemia
  GI50: 0.606 µM
  TGI: > 100 µM
HCT-116 colon
  GI50: 0.325 µM
  TGI: 12.7 µM
HL-60(TB) leukemia
  GI50: 0.239 µM
  TGI: 2.9 µM
CAKI-1 renal
  GI50: 0.26 µM
  TGI: 21 µM
SN12C renal
  GI50: 0.495 µM
  TGI: 16.1 µM
A549 NSCLC
  GI50: 0.458 µM
  TGI: > 46.3 µM
SK-MEL-28 melanoma
  GI50: 0.662 µM
  TGI: 22.9 µM
COLO 205 colon
  GI50: 0.238 µM
  TGI: 1.14 µM
SK-MEL-5 melanoma
  GI50: 0.157 µM
  TGI: 1.72 µM
MCF7 breast
  GI50: 0.124 µM
  TGI: 18.8 µM
BT-549 breast
  GI50: 0.656 µM
  TGI: 12.2 µM
A498 renal
  GI50: 4.75 µM
  TGI: 28.4 µM
HOP-92 NSCLC
  GI50: 1.2 µM
  TGI: 28.8 µM
786-0 renal
  GI50: 0.643 µM
  TGI: > 44.1 µM
K-562 leukemia
  GI50: 0.144 µM
  TGI: > 56 µM
ACHN renal
  GI50: 0.714 µM
  TGI: 24.7 µM
OVCAR-4 ovarian
  GI50: 4.26 µM
  TGI: > 62.9 µM
SF-268 CNS
  GI50: 1.17 µM
  TGI: 25.4 µM
NCI-H522 lung
  GI50: 0.207 µM
  TGI: 1.9 µM
LOX IMVI melanoma
  GI50: 0.482 µM
  TGI: 13.1 µM
IGROV1 ovarian
  GI50: 0.564 µM
  TGI: 16.8 µM
SF-295 CNS
  GI50: 0.204 µM
  TGI: 11.5 µM
SNB-19 CNS
  GI50: 0.757 µM
  TGI: > 49.9 µM
SW-620 colon
  GI50: 0.148 µM
  TGI: > 40.8 µM
U251 CNS
  GI50: 0.427 µM
  TGI: 28.8 µM
HOP-62 NSCLC
  GI50: 0.466 µM
  TGI: 15 µM
HCT-15 colon
  GI50: 0.236 µM
  TGI: 22.9 µM
DU-145 prostate
  GI50: 0.446 µM
  TGI: 24.6 µM
MOLT-4 leukemia
  GI50: 0.585 µM
  TGI: > 49.6 µM
UACC-257 melanoma
  GI50: 0.952 µM
  TGI: 18.5 µM
NCI-H23 lung
  GI50: 0.458 µM
  TGI: 17.9 µM
OVCAR-5 ovarian
  GI50: 0.432 µM
  TGI: 17.3 µM
RXF 393 renal
  GI50: 0.304 µM
  TGI: 6.29 µM
SK-OV-3 ovarian
  GI50: 0.532 µM
  TGI: 32.8 µM
MDA-MB-231 breast
  GI50: 0.557 µM
  TGI: 12.7 µM
TK-10 renal
  GI50: 3 µM
  TGI: 45 µM
HCC-2998 colon
  GI50: 0.535 µM
  TGI: 11.2 µM
PC-3 prostate
  GI50: 0.337 µM
  TGI: > 44.9 µM
NCI-H226 lung
  GI50: 0.853 µM
  TGI: 12.1 µM
SNB-75 CNS
  GI50: 0.163 µM
  TGI: 29.2 µM
NCI-H460 lung
  GI50: 0.208 µM
  TGI: 10.3 µM
T-47D breast
  GI50: 0.449 µM
  TGI: 34.4 µM
